Test results: patent publication US20090081194A1, “COMPOSITIONS AND METHODS FOR REDUCING RISK OF DEVELOPMENT, OR SEVERITY, OF INAPPROPRIATE IMMUNE RESPONSE IN EYES” (priority 2007, published 2009)

Tests used:
TLR9 = biological target: T1, TLR9 (Homo sapiens, UniProt Q9NR96); conditions: Gursel et al. 2003; Stunz et al. 2002; cited from earlier work
T1 sequence (Q9NR96 26-1032): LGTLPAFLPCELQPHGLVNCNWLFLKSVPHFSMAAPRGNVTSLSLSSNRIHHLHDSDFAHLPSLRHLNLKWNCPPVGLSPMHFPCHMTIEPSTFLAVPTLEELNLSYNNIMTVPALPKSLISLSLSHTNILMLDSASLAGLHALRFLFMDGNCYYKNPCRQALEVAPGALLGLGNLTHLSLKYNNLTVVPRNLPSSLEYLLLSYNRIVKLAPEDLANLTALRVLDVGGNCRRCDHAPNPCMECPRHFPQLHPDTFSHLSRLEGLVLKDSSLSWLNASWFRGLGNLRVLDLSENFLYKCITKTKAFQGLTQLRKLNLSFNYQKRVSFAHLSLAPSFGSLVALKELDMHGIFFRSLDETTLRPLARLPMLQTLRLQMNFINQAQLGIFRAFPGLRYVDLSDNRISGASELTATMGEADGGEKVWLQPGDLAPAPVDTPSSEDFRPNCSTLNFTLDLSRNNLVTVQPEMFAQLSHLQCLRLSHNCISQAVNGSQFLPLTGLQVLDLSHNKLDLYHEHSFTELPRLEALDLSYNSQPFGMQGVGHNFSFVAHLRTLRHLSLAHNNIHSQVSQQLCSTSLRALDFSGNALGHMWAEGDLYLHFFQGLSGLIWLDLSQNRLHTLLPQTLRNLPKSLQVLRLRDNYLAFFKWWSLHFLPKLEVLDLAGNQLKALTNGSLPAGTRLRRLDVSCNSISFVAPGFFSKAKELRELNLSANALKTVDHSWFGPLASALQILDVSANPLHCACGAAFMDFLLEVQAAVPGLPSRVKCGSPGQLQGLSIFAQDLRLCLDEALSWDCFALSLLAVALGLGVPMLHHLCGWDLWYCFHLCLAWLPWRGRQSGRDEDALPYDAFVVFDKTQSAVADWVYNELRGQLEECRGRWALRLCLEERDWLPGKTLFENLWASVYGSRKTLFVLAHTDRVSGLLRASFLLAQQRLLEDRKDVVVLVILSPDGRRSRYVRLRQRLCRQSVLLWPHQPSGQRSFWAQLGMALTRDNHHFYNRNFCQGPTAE

C57BL/6 mouse cornea [1] = assay: Mouse keratitis: neutrophil infiltrate in abraded cornea; assay type: in vivo; conditions: topical on abraded cornea, 24 hours, FIG. 5
Method: In this experiment, 1 μl of test solution containing 20 μg/ml of the synthetic stimulatory ODN 1826, 10 μg/ml of endotoxin-free DNA from E. coli K12, 20 μg/ml of Pam3Cys, or 20 μg/ml LPS, along with a composition of the present invention containing the inhibitory ODN 2088, the control composition containing 20 μg/ml of ODN 1911, or medium only, was applied to a 1 mm^2 abraded area of central C57BL/6 mouse cornea that had been marked by sterile trephine (Miltex, Tuttlingen, Germany) and abraded with an Alger brush II (Alger, PagoVista, Texas). After 24 hours, the corneal infiltrate was determined as the number of neutrophils per corneal section. […] Other inhibitors of TLR2 and TLR4 activation should be effective in suppressing corneal infiltrate induced by Pam3Cys and LPS, respectively.

[2] = tested on: mouse peritoneal neutrophils; assay: Cytokine production (ELISA) by activated mouse peritoneal neutrophils; assay type: cell-based; conditions: 15 hours
Method: In one experiment, mouse peritoneal neutrophils were isolated from C57BL/6 mice that had received intraperitoneal injection of 1% casein solution containing 0.5 mM MgCl2 and 0.99 mM CaCl2 16 hours and 3 hours prior to harvesting in Hank's balanced salt solution (“HBSS”) lavage. Collected cells were centrifuged (2000 rpm, 10 min) and washed twice in HBSS, prior to separation of granulocytes by Percol gradient at 31,500 rpm for 20 min. Cells were washed twice and resuspended in Dubelco's modified eagle's medium (“DMEM”) containing 10% fetal calf serum (Invitrogen, Basel Switzerland). Purity of 98% neutrophils was verified by Diff-Quik stain (VWR, Bridgeport, N.J.). Neutrophils (1×10^5/well) were pre-incubated with 100 ng/ml GM-CSF at 37° C. for 1 hour prior to exposure to compositions of the present invention comprising 0.08-10 μg/ml of inhibitory ODN 2088 (InvivoGen, San Diego, Calif.; sequence disclosed above) or a control composition containing 20 μg/ml of the control ODN 1911 (Operon Qiagen, Valencia, Calif.; having a sequence of […]), or the medium only, for 30 minutes prior to activation with 20 μg/ml of stimulatory ODN 1826 (Operon Qiagen, Valencia, Calif.; having a sequence of […]); 20 μg/ml of endotoxin-free DNA from E. coli K12 (InvivoGen, San Diego, Calif.); killed Staphylococcus aureus strain E2061740 (3×10^5 cfu/ml); 100 ng/ml of Pam3Cys (synthetic lipopeptide (S)-(2,3-bis(palmitoyloxy)-(2RS)-propyl)-N-palmitoyl-(R)-Cys-(S)-Ser-(S)-Lys4-OH, EMC Microcollections, Tubingen, Germany); or 200 ng/ml of LPS (ultra pure lipopolysaccharide from E. coli 0111:B4 strain, InvivoGen, San Diego, Calif.). After 15 hours at 37° C., supernates were collected for ELISA assay (R&D Systems, Minneapolis, Minn.) for pro-inflammatory cytokines macrophage inflammatory protein-2 (“MIP-2”), keratinocyte-derived chemokines (“KC”), IL-6, and TNF-α. […] The production of these pro-inflammatory cytokines was not affected when neutrophils activated by Pam3Cys or LPS were treated with a composition comprising the inhibitory ODN 2088. This not surprising in view of the fact that the inhibitory ODN 2088 inhibits the activation of TLR9 while LPS and Pam3Cys activate TLR4 and TLR2, respectively. Other inhibitors of TLR2 and TLR4 activation should be effective in suppressing corneal infiltrate induced by […], respectively.

C57BL/6 mouse cornea [3] = assay: Corneal epithelium cytokines (ELISA) after stimulatory ODN on abraded mouse cornea; assay type: in vivo; conditions: stimulatory ODN 1826 20 μg/ml with ODN 2088 20 μg/ml, 5 hours; all three cytokines; FIG. 6
Method: In this experiment, 1 μl of test solution containing 20 μg/ml of the synthetic stimulatory ODN 1826, along with a composition of the present invention containing 20 μg/ml of the inhibitory ODN 2088, or a control composition containing 20 μg/ml of the control ODN 1911, or the medium only, was applied to a 1 mm^2 abraded area of central C57BL/6 mouse cornea that had been marked by sterile trephine (Miltex, Tuttlingen, Germany) and abraded with an Alger brush II (Alger, PagoVista, TX). After 5 hours, the corneal epithelium was separated after 20 minutes in 20 mM EDTA at 37° C. and placed into RPMI 1640 medium. Samples were disrupted by sonication for 88 seconds with 40% duty cycle (Vibracell; Sonics and Material, Danbury, Conn.). Cytokines were measured by ELISA assay (R&D Systems, Minneapolis, Minn.) for the pro-inflammatory cytokines MIP-2, KC, and human interferon-inducible protein 10 (“IP-10”).

## TCCTGGCGGGGAAGT (chemistry not given here) [ODN 2088]
TLR9
  colocalization of CpG DNA with TLR9 within endosomal vesicles: block the colocalization
C57BL/6 mouse cornea [1]; LPS 20 μg/ml
  corneal infiltrate, number of neutrophils per corneal section: not effective in suppressing corneal infiltrates
C57BL/6 mouse cornea [1]; Pam3Cys 20 μg/ml
  corneal infiltrate, number of neutrophils per corneal section: not effective in suppressing corneal infiltrates
C57BL/6 mouse cornea [1]; bacterial DNA (E. coli K12) 10 μg/ml
  corneal infiltrate, number of neutrophils per corneal section: reduced the number of infiltrating neutrophils
C57BL/6 mouse cornea [1]; stimulatory ODN 1826 20 μg/ml
  corneal infiltrate, number of neutrophils per corneal section: reduced the number of infiltrating neutrophils
[2]; activation with 100 ng/ml Pam3Cys
  pro-inflammatory cytokine production by neutrophils (MIP-2, KC, IL-6, TNF-α): not affected
[2]; activation with 200 ng/ml LPS
  pro-inflammatory cytokine production by neutrophils (MIP-2, KC, IL-6, TNF-α): not affected
[2]; activation with 20 μg/ml endotoxin-free DNA from E. coli K12, ODN 2088 0.08-10 μg/ml, dose dependent, FIGS. 1-4
  pro-inflammatory cytokine production by neutrophils (MIP-2, KC, IL-6, TNF-α): inhibited pro-inflammatory cytokine production
[2]; activation with 20 μg/ml stimulatory ODN 1826, ODN 2088 0.08-10 μg/ml, dose dependent, FIGS. 1-4
  pro-inflammatory cytokine production by neutrophils (MIP-2, KC, IL-6, TNF-α): inhibited pro-inflammatory cytokine production
[2]; activation with killed Staphylococcus aureus (3×10^5 cfu/ml)
  pro-inflammatory cytokine production by neutrophils (MIP-2, KC, IL-6, TNF-α): nondetectable levels
C57BL/6 mouse cornea [3]
  corneal cytokine response (MIP-2, KC, IP-10): reduced cytokine response
